According to US20250255771A1, “OPHTHALMIC DEVICES FOR MANAGEMENT OF WATER VAPOR TRANSMISSIBILITY, DELIVERY OF PHARMACEUTICAL AGENTS, AND NON-SURGICAL CORNEAL RESHAPING” (OCULAR SURFACE INNOVATIONS INC., priority 2024, published 2025):

Legend:
[1] = Selective transfer of molecules through ultrahigh Dk lens material; assay type: physicochemical; details: ultrahigh Dk lens material selective to molecules by size
Description: The inventors discovered an ultrahigh Dk lens material that is selective to the transfer of molecules based on their size. […] The material has value in reverse osmosis systems because of its selective permeability. Its transmissibility may be regulated by the thickness profile of the ophthalmic device or may be further regulated by the addition of surface modification or fillers within the substrate of the material that produce selective permeability related to polar surface area or the molecular weight of a permeant.

[2] = same polydimethylsiloxane devices; stated as known; cited from earlier work
[3] = Retention of permeants under polydimethylsiloxane devices during wearing; details: devices 14.3 mm overall diameter, thickness greater than 0.400 mm; not found in device substrate after removal or in pre device tear film during wearing

transfer through the material [1] | Structure (SMILES) | transmissibility through the devices [2] | retention of permeant behind the device (permeation through device) [3]
will transfer | O [water vapor] | high transmissibility | –
– | CCO [ethanol] | high transmissibility | –
– | O=C([O-])c1ccccc1-c1c2ccc(=O)cc-2oc2cc([O-])ccc12.[Na+].[Na+] [sodium fluorescein] | – | retained in the post lens tear space
will transfer | O=O [oxygen] | high transmissibility | –

Structure (SMILES) | transfer through the material [1] | transmissibility through the devices [2] | retention of permeant behind the device (permeation through device) [3]
[Cl-].[Na+] [sodium chloride] | will not transfer | – | –
